Data on four compounds can be found in patent US8703751B2, “Androstenediol as an indicator for assessing estrogenicity” (The Regents of the University of California, priority 2009, dated 2014).

Entries after “also recorded” stand apart in the source; their conditions may differ.

The target in one data set is T1, estrogen-alpha receptor (Homo sapiens, UniProt P03372).
T1 construct: human ovarian carcinoma cells (BG1) that have been stably transfected with a luciferase reporter gene plasmid; endogenous in cells; host or cells: BG1 human ovarian carcinoma cells stably transfected with an ERE-luciferase reporter plasmid
T1 sequence (P03372 whole entry): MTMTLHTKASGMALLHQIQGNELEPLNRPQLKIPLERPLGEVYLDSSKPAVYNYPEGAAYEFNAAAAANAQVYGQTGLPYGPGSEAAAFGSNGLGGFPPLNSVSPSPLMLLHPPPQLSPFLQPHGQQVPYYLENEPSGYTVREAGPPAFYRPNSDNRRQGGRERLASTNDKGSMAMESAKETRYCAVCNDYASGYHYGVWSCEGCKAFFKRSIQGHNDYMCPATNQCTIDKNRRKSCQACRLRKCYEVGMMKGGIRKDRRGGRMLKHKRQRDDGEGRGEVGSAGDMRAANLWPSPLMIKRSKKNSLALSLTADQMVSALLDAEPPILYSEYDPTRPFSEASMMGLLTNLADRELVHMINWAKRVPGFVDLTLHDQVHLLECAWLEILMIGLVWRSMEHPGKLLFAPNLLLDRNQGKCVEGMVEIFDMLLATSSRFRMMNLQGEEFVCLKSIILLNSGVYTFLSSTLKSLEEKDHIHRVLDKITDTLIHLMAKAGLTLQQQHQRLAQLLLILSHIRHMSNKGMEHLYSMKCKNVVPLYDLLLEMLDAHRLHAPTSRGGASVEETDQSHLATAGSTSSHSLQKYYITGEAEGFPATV
Put plainly: cell-based estrogen receptor bioassay (BG1 cells, luciferase reporter under four estrogen-response elements) for estrogenicity. The following applies: for inherent estrogenic bioactivity (estrogenicity): at physiological circulating concentrations, FIG. 5 dose-response curves. An excerpt:
The total estrogen receptor ligand load (ERLL) can be determined using any method known in the art. The ERLL provides an estimate of the combined biological potential of the estrogen-alpha receptor ligand load contained in the sample. […] Other cell lines can find use. […] The detectable signal of any reporter gene known in the art can be used, including without limitation luciferase and fluorescent proteins (e.g., green fluorescent protein, yellow fluorescent protein, blue fluorescent protein, red fluorescent protein, etc.). In the case where […] is used as the reporter gene, […] substrate is added to the culture and the luciferase activity induced by the standards and/or test sample are measured using a Luminometer.
This assay assesses the total estrogenic bioactivity contained in a serum sample. Thus and estimate of the combined biological potential of the estrogen-alpha receptor ligand load (ERLL) contained in the sample. Thus the bioactivity of a sample will be appropriately estimated. Briefly, human ovarian carcinoma cells (BG1) that have been stably transfected with a luciferase reporter gene plasmid under the regulation of four estrogen-response elements were used to measure total bioactive estrogens. BG1 cells were cultured in Alpha Minimum Essential Medium (Alpha-MEM) with 10% fetal bovine serum (FBS). When cells reached 80% confluence, cells were trypsinized (0.05% trypsin-EDTA) and well dispersed in phenol-red free Dulbecco's […] (DMEM) supplemented with 10% dextran charcoal treated FBS (DCC-FBS). Suspended cells (0.05 mL/well; density of 25,000 cells/0.05 mL) were added to 96-well tissue culture plates containing 0.15 mL/well of phenol-red free DMEM supplemented with 10% DCC-FBS. On each of the two subsequent days (Days 2 and 3), the media in each well was removed and replaced with 0.2 mL phenol-red free DMEM supplemented with 10% DCC-FBS. […] To compensate for any serum matrix effects, DCC-FBS was added to the E2 standard preparation at a proportion equal to that of the serum content of the sample preparation (5% v/v). Serum samples were diluted in DCC-FBS with a final serum content of 5% (v/v). Plates were then incubated for an additional 18 hours. Media was then removed and 0.1 mL cell lysis buffer added to each well and allowed to incubate for 20 minutes. Cell lysates (0.04 mL) were transferred to 96-well Microfluor II plates (Fisher Scientific, Santa Clara, Calif.). Luciferin substrate was injected into each well and the luciferase activity induced by the standards and/or test serum was measured by a Veritas Luminometer (Turner Biosystems, Sunnyvale, Calif., USA).
The third element for developing the concept was that of gaining additional insight into the innate properties of all of the adrenal steroids that were associated with the rise of DS during the menopausal transition. For these investigations newly developed in vitro bioassays were used to adjudicate the estrogenicity of all for adrenal steroids (i.e., T, A-dione, 5A-diol and DHEA).

For data set [1] the following is noted: cited from earlier work.
For data set [2] the following is noted: local, intravaginal suppository; cited from earlier work.
For data set [3] the following is noted: transdermal administration; 60-65 year old women; cited from earlier work.
For data set [4] the following is noted: 25 mg oral dose for three months; from 0.32 ng/mL before (doubling); cited from earlier work.
[5] abbreviates: oral 50 mg/day for one year, women over 70 years old.

With `C[C@]12CCC(=O)C=C1CC[C@@H]1[C@@H]2CC[C@]2(C)C(=O)CC[C@@H]12` [A-dione, androstendione], the “inherent estrogenic bioactivity (estrogenicity)” value (shortened to “inherent estrogenic bioactivity”) at estrogen-alpha receptor is “only 5A-diol and estradiol had substantial inherent estrogenic bioactivity”.

As for `C[C@]12CC[C@H](O)CC1=CC[C@@H]1[C@@H]2CC[C@]2(C)C(=O)CC[C@@H]12` [DHEA, dehydroepiandrosterone], at estrogen-alpha receptor, the “estrogenic or not (discussion statement)” value was “not estrogenic”; the “inherent estrogenic bioactivity” value is “only 5A-diol and estradiol had substantial inherent estrogenic bioactivity; also recorded: does not”. For the same compound, the “BMD and bone resorption” value in data set [1] (50 mg daily oral, adults 55-85 years of age, in women but not men) is on record as “only modest effect”. The muscle status result in data set [1] (50 mg/day oral, one year, men and women between 60 and 80 years of age) is given as “no positive effect”. In data set [1] (setting [5]), the bone turnover result was “modestly decrease”, the libido result was “increase” and the skin hydration result was “improve”. Besides, in data set [2], the age-related vaginal atrophy entry is reported as “highly efficient treatment” and the “change in circulating sex steroid concentrations” value is “no significant change”. Further, in data set [3], the “increase in circulating DS” value is “five fold increase”; the “increase in circulating androstendiol glucuronides” value was “less than a two and one-half fold increase”. For the same compound, the “circulating concentration of A-diol after treatment” value in data set [4] was 0.66 ng/mL.

Consider `C[C@]12CC[C@H]3[C@@H](CC=C4C[C@@H](O)CC[C@@]43C)[C@@H]1CC[C@@H]2O` [5A-diol, (3-beta,17-beta)-Androst-5-ene-3,17-diol], for which, at estrogen-alpha receptor, the “estrogenic or not (discussion statement)” value is recorded as “is estrogenic” and the “inherent estrogenic bioactivity” value is on record as “substantial inherent estrogenic bioactivity”. Besides, the “inherent estrogenic bioactivity” value on estrogen-alpha receptor (listed as androstenediol) is listed as “significant “estrogenicity” at physiological levels”.

With `C[C@]12CC[C@H]3[C@@H](CCC4=CC(=O)CC[C@@]43C)[C@@H]1CC[C@@H]2O` [T, testosterone], the “inherent estrogenic bioactivity” value on estrogen-alpha receptor was “only 5A-diol and estradiol had substantial inherent estrogenic bioactivity”.
